This is an account of results in US5543276A, “Color photographic element containing new epoxy scavengers for residual magenta coupler” (Eastman Kodak Company, priority 1994, dated 1996).

The conditions of series [1]: epoxy compound coated in separate layers adjacent to imaging layer; copending application Ser. No. 08/000,431; cited from earlier work.
Series [2] is described as follows: Residual magenta coupler M-20 in unexposed strips, raw stock and RA-4 processed. As to conditions: coated M-20 32.8 mg/ft^2; for M-20 remaining, Processed after 2wk / M-20 remaining, Processed after 4wk: unexposed strips, standard RA-4 developer; for M-20 remaining, Processed after 2wk / M-20 remaining, Raw Stock after 2wk RT: 2 weeks room temperature; for M-20 remaining, Processed after 4wk / M-20 remaining, Raw Stock after 4wk: 4 weeks room temperature; for M-20 remaining, Raw Stock after 2wk RT / M-20 remaining, Raw Stock after 4wk: unprocessed strips. Here is the method:
A dispersion of the magenta coupler M-20 and scavenger coupler S-1 were prepared in the following manner:
The oil phase was prepared by combining 1.875 grams of S-1 with 0.852 grams of myrisitc acid and 30 grams of ethyl acetate. The solution was stirred on a hot plate for about 5 minutes.
The aqueous phase was prepared by combining 3.0 grams of a 10% solution of Alkanol XC with 17.6 grams of a 11.36% solution of Type IV gelatin in water. 26.7 grams of distilled water was then added and the solution was stirred on a hot plate for about five minutes.
The aqueous phase was combined with the oil phase and the mixture was stirred. The mixture was then passed three times through a colloid mill to obtain the dispersion. The ethyl acetate was removed by evaporation under reduced pressure. [drawing 42] The dispersions were then coated in the format shown below (the numbers indicate the amount of each component in mg/ft^2).
The coating format also contains a UV protection layer and an overcoat (not shown). Unexposed strips were process in standard RA-4 developer and then stored at room temperature. The strips were analyzed for residual coupler as a function of time. A set of unprocessed strips were stored at room temperature for the same length of time to check for reaction between coupler and S-1 in raw stock. A second set of unexposed strips were processed in standard RA-4 developer and then subjected to two weeks of 50 klux high intensity sunshine radiation after storage at room temperature for two weeks. The change in Status A blue density was measured. […]

The nature of series [3]: Change in Status A blue density (photochemical yellowing) of processed unexposed strips under high intensity sunshine radiation. As to conditions: RA-4 processed, 2 weeks room temperature, then two weeks 50 klux high intensity sunshine. The procedure:
The coating format also contains a UV protection layer and an overcoat (not shown). Unexposed strips were process in standard RA-4 developer and then stored at room temperature. The strips were analyzed for residual coupler as a function of time. A set of unprocessed strips were stored at room temperature for the same length of time to check for reaction between coupler and S-1 in raw stock. A second set of unexposed strips were processed in standard RA-4 developer and then subjected to two weeks of 50 klux high intensity sunshine radiation after storage at room temperature for two weeks. The change in Status A blue density was measured.
This coating also contained a UV protection layer and overcoat (not shown). Strips based on the coating were subjected to the same set of tests as in Example 4.

On to `O=C(OCCCCCCCCCC1CO1)c1ccccc1C(=O)OCCCCCCCCCC1CO1` (centres unmarked) [S-1], for which the “loss of coupler prior to processing” value in series [1] is listed as “negligible loss of coupler prior to processing”. In series [2], the “M-20 remaining, Processed after 2wk” value turned out to be 29.9 mg/ft.2; the “M-20 remaining, Processed after 4wk” value worked out at 29.3 mg/ft.2; the “M-20 remaining, Raw Stock after 2wk RT” value came to 30.2 mg/ft.2; the “M-20 remaining, Raw Stock after 4wk” value was determined as 28.8 mg/ft.2. In addition, the “Delta Blue Density” value in series [3] is listed as 0.13.

In the case of `O=C(CCCCCCCCC1CO1)Oc1ccc(NS(=O)(=O)c2ccc(F)cc2F)cc1` (centres unmarked) [SI-20], in series [2], the “M-20 remaining, Processed after 2wk” value amounted to 14.9 mg/ft.2; the “M-20 remaining, Processed after 4wk” value was 13.9 mg/ft.2; the “M-20 remaining, Raw Stock after 2wk RT” value was 28.6 mg/ft.2; the “M-20 remaining, Raw Stock after 4wk” value was determined as 28.4 mg/ft.2. The “Delta Blue Density” value in series [3] came out at 0.05.
